Assay results published in ChEMBL document CHEMBL1140379, “Extraction and visualization of potential pharmacophore points using support vector machines: application to ligand-based virtual screening for COX-2 inhibitors” (J Med Chem, 2005).

Target: T1, Prostaglandin G/H synthase 2 (Homo sapiens, UniProt P35354)
T1 sequence (P35354 whole entry): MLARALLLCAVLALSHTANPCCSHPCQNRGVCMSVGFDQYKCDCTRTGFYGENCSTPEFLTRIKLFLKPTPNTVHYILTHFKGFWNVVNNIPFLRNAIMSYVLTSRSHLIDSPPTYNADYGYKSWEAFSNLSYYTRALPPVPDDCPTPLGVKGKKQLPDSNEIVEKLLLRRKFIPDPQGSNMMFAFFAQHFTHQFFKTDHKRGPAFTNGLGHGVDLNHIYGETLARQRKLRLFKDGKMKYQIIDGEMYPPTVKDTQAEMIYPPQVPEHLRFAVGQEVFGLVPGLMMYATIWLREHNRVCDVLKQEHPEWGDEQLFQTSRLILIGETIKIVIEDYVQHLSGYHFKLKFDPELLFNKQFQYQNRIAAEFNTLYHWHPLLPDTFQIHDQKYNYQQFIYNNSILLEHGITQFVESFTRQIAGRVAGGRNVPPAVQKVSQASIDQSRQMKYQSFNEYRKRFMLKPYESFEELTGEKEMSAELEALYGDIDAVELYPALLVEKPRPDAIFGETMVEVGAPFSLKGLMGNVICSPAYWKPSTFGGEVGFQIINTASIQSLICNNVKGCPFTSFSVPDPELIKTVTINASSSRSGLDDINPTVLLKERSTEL
Assay: Inhibitory concentration against COX-2 upon incubation for 15 minutes at 37 degree C

Row | Compound | IC50 [µM]
1 | COc1ccccc1-n1c(-c2ccc(S(N)(=O)=O)cc2)nc2ccccc21 | 8
2 | NS(=O)(=O)c1ccc(-c2nc3ccccc3n2-c2ccc(Cl)cc2)cc1 | 0.2
